Measurements published in paper PMC7408493, “Implication of Opioid Receptors in the Antihypertensive Effect of a Novel Chicken Foot-Derived Peptide” (Biomolecules, 2020).
Ends that are not written are not given here.

Test: Peptide presence in plasma after oral administration
Assay type: in vivo
Details: Wistar rats, 10 mg/kg bw oral, plasma at 0, 30 and 60 min, pooled n = 6, SPE extraction, UHPLC-MS/MS (limit of detection 0.05 ppb) and UHPLC-HRMS
Experimental: Male Wistar rats (17–20 weeks-old, weighing between 230 and 250 g) were obtained from Charles River Laboratories (Barcelona, Spain). Animals were maintained in pairs, at 22 °C with light/dark cycles of 12 h and were fed standard chow diet (AO4, Panlab, Barcelona, Spain) ad libitum during all the experiment. Animals were randomly divided and administered tap water (control group, n = 6) or 10 mg/kg body weight (bw) peptide ([…] group, n = 6) by gastric intubation after starvation of 12 h. The total volume of water or […] orally administered to the rats was 1 mL. […]
Solid-phase extraction (SPE): Plasma samples (150 µL) were mixed with 25 µL of IFV*[…] […] Eluted samples were dried in a speed-vac concentrator (Thermo Fisher, Waltham, Massachusetts), USA), reconstituted in 100 µL of water (0.1 % FA and 0.1 % BSA), and analyzed by UHPLC-MS/MS. […]
The obtained purified solutions from plasma and peptide digests G60 and D60 and from AP and BL chambers in Caco-2 experiment were analyzed using a UHPLC 1290 Infinity II Series coupled to a QqQ 6490 Series (Agilent Technologies, Santa Clara, CA, USA) for tandem mass experiments or a qTOF 6550 Series (Agilent Technologies) for high-resolution mass spectrometry experiments. […]

In the case of AVFQHNCQE, the “Presence of peptide or fragments in plasma” value is reported as “neither the peptide nor their potential fragments were identified in the plasma samples”.
